Source: PubChem BioAssay (NCI)
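Interpolation was linear, between the two tested concentrations surrounding the appropriate level; five concentrations were tested over 48 hours in 96-well plates. TGI marks complete inhibition of growth.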

Experiments:
Test in all cases: inhibition of tumour cell growth, NCI panel, 48 h
HOP-62 NSCLC = test system: HOP-62 NSCLC
OVCAR-8 ovarian = test system: OVCAR-8 ovarian
NCI-H23 lung = test system: NCI-H23 lung
MOLT-4 leukemia = test system: MOLT-4 leukemia
NCI-H226 lung = test system: NCI-H226 lung
BT-549 breast = test system: BT-549 breast
KM12 colon = test system: KM12 colon
OVCAR-5 ovarian = test system: OVCAR-5 ovarian
NCI/ADR-RES ovarian = test system: NCI/ADR-RES ovarian
SK-OV-3 ovarian = test system: SK-OV-3 ovarian
K-562 leukemia = test system: K-562 leukemia
ACHN renal = test system: ACHN renal
TK-10 renal = test system: TK-10 renal
HCC-2998 colon = test system: HCC-2998 colon
MDA-MB-435 = test system: MDA-MB-435
T-47D breast = test system: T-47D breast
SK-MEL-2 melanoma = test system: SK-MEL-2 melanoma
CCRF-CEM leukemia = test system: CCRF-CEM leukemia
786-0 renal = test system: 786-0 renal
LOX IMVI melanoma = test system: LOX IMVI melanoma
HOP-92 NSCLC = test system: HOP-92 NSCLC
NCI-H460 lung = test system: NCI-H460 lung
A498 renal = test system: A498 renal
MDA-MB-231 breast = test system: MDA-MB-231 breast
SNB-19 CNS = test system: SNB-19 CNS
UACC-62 melanoma = test system: UACC-62 melanoma
DU-145 prostate = test system: DU-145 prostate
U251 CNS = test system: U251 CNS
OVCAR-3 ovarian = test system: OVCAR-3 ovarian
MCF7 breast = test system: MCF7 breast
SW-620 colon = test system: SW-620 colon
SF-295 CNS = test system: SF-295 CNS
RPMI-8226 leukemia = test system: RPMI-8226 leukemia
HT29 colon = test system: HT29 colon
HS 578T breast = test system: HS 578T breast
A549 NSCLC = test system: A549 NSCLC
UO-31 renal = test system: UO-31 renal
HCT-15 colon = test system: HCT-15 colon
M14 melanoma = test system: M14 melanoma
MALME-3M melanoma = test system: MALME-3M melanoma
CAKI-1 renal = test system: CAKI-1 renal
PC-3 prostate = test system: PC-3 prostate
SK-MEL-5 melanoma = test system: SK-MEL-5 melanoma
SN12C renal = test system: SN12C renal
MDA-N = test system: MDA-N
HL-60(TB) leukemia = test system: HL-60(TB) leukemia
SK-MEL-28 melanoma = test system: SK-MEL-28 melanoma
UACC-257 melanoma = test system: UACC-257 melanoma
SR leukemia = test system: SR leukemia
OVCAR-4 ovarian = test system: OVCAR-4 ovarian
EKVX NSCLC = test system: EKVX NSCLC
IGROV1 ovarian = test system: IGROV1 ovarian
COLO 205 colon = test system: COLO 205 colon
SF-539 CNS = test system: SF-539 CNS
NCI-H522 lung = test system: NCI-H522 lung
SF-268 CNS = test system: SF-268 CNS
HCT-116 colon = test system: HCT-116 colon
RXF 393 renal = test system: RXF 393 renal
SNB-75 CNS = test system: SNB-75 CNS

## CC(=O)OC1O[C@@H](C(C)(C)O)CC[C@@H]1[C@H]1CC[C@@]2(C)C3=C(CC[C@]12C)[C@@]1(C)C[C@@H](OC(=O)CC(C)(O)CC(=O)O)[C@H](OC(C)=O)C(C)(C)C1CC3 (stereo not given in full)
HOP-62 NSCLC
  TGI: 35.4 µM
OVCAR-8 ovarian
  TGI: 33.1 µM
NCI-H23 lung
  TGI: 36.8 µM
MOLT-4 leukemia
  TGI: 43.9 µM
NCI-H226 lung
  TGI: 49.6 µM
BT-549 breast
  TGI: 29.9 µM
KM12 colon
  TGI: 44.9 µM
OVCAR-5 ovarian
  TGI: 32.2 µM
NCI/ADR-RES ovarian
  TGI: 33.7 µM
SK-OV-3 ovarian
  TGI: 38.7 µM
K-562 leukemia
  TGI: 89.1 µM
ACHN renal
  TGI: 32.5 µM
TK-10 renal
  TGI: 33.2 µM
HCC-2998 colon
  TGI: 36.8 µM
MDA-MB-435
  TGI: 31.4 µM
T-47D breast
  TGI: 40.3 µM
SK-MEL-2 melanoma
  TGI: 38.7 µM
CCRF-CEM leukemia
  TGI: 41.6 µM
786-0 renal
  TGI: 33.9 µM
LOX IMVI melanoma
  TGI: 32.6 µM
HOP-92 NSCLC
  TGI: 30.8 µM
NCI-H460 lung
  TGI: 32.7 µM
A498 renal
  TGI: 33.8 µM
MDA-MB-231 breast
  TGI: 45.5 µM
SNB-19 CNS
  TGI: 34.6 µM
UACC-62 melanoma
  TGI: 72.4 µM
DU-145 prostate
  TGI: 33.2 µM
U251 CNS
  TGI: 31.4 µM
OVCAR-3 ovarian
  TGI: 32.6 µM
MCF7 breast
  TGI: 32.5 µM
SW-620 colon
  TGI: 37.4 µM
SF-295 CNS
  TGI: 32.4 µM
RPMI-8226 leukemia
  TGI: 53.8 µM
HT29 colon
  TGI: 36.4 µM
HS 578T breast
  TGI: 42.3 µM
A549 NSCLC
  TGI: 30.9 µM
UO-31 renal
  TGI: 29.4 µM
HCT-15 colon
  TGI: 43.1 µM
M14 melanoma
  TGI: 34.8 µM
MALME-3M melanoma
  TGI: 34.1 µM
CAKI-1 renal
  TGI: 29.4 µM
PC-3 prostate
  TGI: 30.9 µM
SK-MEL-5 melanoma
  TGI: 33.3 µM
SN12C renal
  TGI: 36.2 µM
MDA-N
  TGI: 34.4 µM
HL-60(TB) leukemia
  TGI: 65.1 µM
SK-MEL-28 melanoma
  TGI: 30.8 µM
UACC-257 melanoma
  TGI: 31.7 µM
SR leukemia
  TGI: 53.2 µM
OVCAR-4 ovarian
  TGI: 37.6 µM
EKVX NSCLC
  TGI: 35.3 µM
IGROV1 ovarian
  TGI: 33.6 µM

## NCCCNCCCCNCCCN
COLO 205 colon
  TGI: 11.8 µM
HOP-62 NSCLC
  TGI: > 100 µM
OVCAR-8 ovarian
  TGI: > 100 µM
NCI-H23 lung
  TGI: > 100 µM
MOLT-4 leukemia
  TGI: 17.5 µM
NCI-H226 lung
  TGI: > 100 µM
BT-549 breast
  TGI: > 24.5 µM
KM12 colon
  TGI: > 100 µM
OVCAR-5 ovarian
  TGI: > 100 µM
NCI/ADR-RES ovarian
  TGI: > 91.6 µM
SK-OV-3 ovarian
  TGI: > 53.9 µM
SF-539 CNS
  TGI: 34.3 µM
K-562 leukemia
  TGI: > 21.2 µM
NCI-H522 lung
  TGI: 0.879 µM
ACHN renal
  TGI: 9.22 µM
TK-10 renal
  TGI: 18.9 µM
HCC-2998 colon
  TGI: > 76.7 µM
MDA-MB-435
  TGI: > 68.2 µM
T-47D breast
  TGI: 5.91 µM
SF-268 CNS
  TGI: > 92.9 µM
SK-MEL-2 melanoma
  TGI: > 100 µM
CCRF-CEM leukemia
  TGI: 5.72 µM
HCT-116 colon
  TGI: 8.78 µM
786-0 renal
  TGI: 2.79 µM
LOX IMVI melanoma
  TGI: 30.5 µM
HOP-92 NSCLC
  TGI: 3.41 µM
NCI-H460 lung
  TGI: > 100 µM
A498 renal
  TGI: > 100 µM
MDA-MB-231 breast
  TGI: > 60.8 µM
SNB-19 CNS
  TGI: > 100 µM
UACC-62 melanoma
  TGI: > 100 µM
DU-145 prostate
  TGI: 23.2 µM
U251 CNS
  TGI: > 63.7 µM
OVCAR-3 ovarian
  TGI: > 20.1 µM
MCF7 breast
  TGI: 13.1 µM
SW-620 colon
  TGI: 14 µM
SF-295 CNS
  TGI: > 100 µM
RXF 393 renal
  TGI: 28.3 µM
RPMI-8226 leukemia
  TGI: 1.59 µM
HT29 colon
  TGI: 76.5 µM
HS 578T breast
  TGI: 98 µM
A549 NSCLC
  TGI: > 100 µM
UO-31 renal
  TGI: 5.02 µM
HCT-15 colon
  TGI: 7.63 µM
M14 melanoma
  TGI: 29.4 µM
SNB-75 CNS
  TGI: > 100 µM
MALME-3M melanoma
  TGI: > 100 µM
CAKI-1 renal
  TGI: 11.6 µM
PC-3 prostate
  TGI: > 100 µM
SK-MEL-5 melanoma
  TGI: > 100 µM
SN12C renal
  TGI: 15.4 µM
MDA-N
  TGI: 41.5 µM
HL-60(TB) leukemia
  TGI: 15.2 µM
UACC-257 melanoma
  TGI: > 100 µM
SR leukemia
  TGI: > 36.8 µM
OVCAR-4 ovarian
  TGI: > 21.8 µM
EKVX NSCLC
  TGI: 38.6 µM
IGROV1 ovarian
  TGI: 33.8 µM
